The text below walks through data of patent US20210130312A1, “INHIBITORS OF EYA3-PROTEIN TYROSINE PHOSPHATASE IN DNA DAMAGE REPAIR SIGNALING OF PULMONARY ARTERIAL HYPERTENSION” (CHILDREN'S HOSPITAL MEDICAL CENTER, priority 2018, published 2021).

Assay [1] concerns Sugen-Hypoxia (SuHx) rat model. In words: Sugen-Hypoxia (SuHx) rat model of PAH: RVSP by right heart catheterization, Fulton's index, PV remodeling. In kind it is in vivo. The protocol: Sugen-Hypoxia (SuHx) rat model was used where a single administration of the VEGF inhibitor SU-5416 is followed by 3 weeks of hypoxia (10% O2) and PAH develops between 3-5 weeks after rats (adult Sprague-Daley males) are returned to room air. To test the effect of EYA-PTP inhibition on the development of PAH, benzarone (BZ) was administered every 3 days for 5 weeks after return to room air. The rats were maintained for a further 3 weeks in room air and then right ventricular systolic pressure (RVSP) measured by right heart catheterization. The increase in RVSP in BZ-treated rats was 32% less in BZ-treated rats than in vehicle-treated rats. Fulton's index (right ventricle/left ventricle plus septum weight) was also lower (by 28% relative to vehicle-treated controls) in BZ-treated animals indicating reduced RV hypertrophy.

In assay [2] the test system is γ-H2AX and 53BP1 foci in PASMC. Kind of assay: γ-H2AX and 53BP1 staining (DDR) in lungs from rats subject to the SuHx protocol. The assay is classed as in vivo, rat. The conditions noted are these: lungs of SuHx rats treated with EYA-PTP inhibitor. An excerpt:
γ-H2AX foci report on the existence of DSBs, and the assembly of functional DDR complexes is characterized by the presence of 53BP1 foci. Rats subject to the SuHx protocol show increased γ-H2AX and 53BP1 staining in both PAEC and PASMC, likely as a result of oxidative stress. Rats treated with EYA-PTP inhibitor BZ had reduced γ-H2AX staining, as well as reduced 53BP1 foci formation in PASMC.

Setting [3] is: rat SuHx model of PH, statement in words.

As to `CCc1oc2ccccc2c1C(=O)c1ccc(O)cc1` [BZ, benzarone], the “increase in RVSP, less than in vehicle-treated rats” value in assay [1] (SuHx rats, administered every 3 days for 5 weeks after return to room air, measured after a further 3 weeks in room air) was 32%. The “Fulton's index (right ventricle/left ventricle plus septum weight), lower relative to vehicle-treated controls” value in assay [1] (SuHx rats, same regimen, indicates reduced RV hypertrophy) is reported as 28%. For the same molecule, in assay [1] (setting [3]), the PV remodeling result was “effectively reduces” and the RVSP result was “effectively reduces”. Moreover, in assay [2], the “53BP1 foci formation in PASMC” value is “reduced” and the γ-H2AX staining result was “reduced”.
